According to patent publication US9878999B2, “Proteasome chymotrypsin-like inhibition using PI-1833 analogs” (H. Lee Moffitt Cancer Center and Research Institute, Inc., priority 2011, dated 2018):
Several values for one entry are separate records, joined by “and”; a condition that tells them apart may be missing. Equal entries are not always repeated. Where two headings read alike, the source gives them in different places.

Molecular target: CT-L activity of purified 20S proteasome (Homo sapiens, UniProt P20618+P28074)
Experiment: in vitro CT-L activity of purified 20S proteasome
Type: biochemical
Details: for inhibition at 10 µM / Screening Results (% Inhibition @ 10 μM) Chymotrypsin-like: Table 5, @ 10 μM; for inhibition at 10 µM: read-out: Screening Results (% Inhibition @ 10 μM) Chymotrypsin-like
[1] = Table 5, read-out: IC50 (μM) Chymotrypsin-like
[2] = Table 9, read-out: IC50 (μM) Chymotrypsin-like

Row | Compound | IC50 [1] | also measured
1 | Cc1ccc(OCC(=O)N(Cc2nc(-c3ccccc3)no2)C(C)C)cc1 [drawing 117] | 0.31 µM | –
2 | Cc1ccc(-c2noc(CN(C(=O)COc3ccc(C(F)(F)F)cc3)C(C)C)n2)cc1 [drawing 118] | 1.08 ± 0.33 µM | –
3 | CC(C)N(Cc1nc(-c2ccc(Cl)cc2)no1)C(=O)COc1ccc(Cl)cc1 [drawing 119] | 1.07 ± 0.05 µM | –
4 | CC(C)N(Cc1nc(-c2ccc(C(F)(F)F)cc2)no1)C(=O)COc1ccc(Cl)cc1 [drawing 120] | 1.4 ± 0.185 µM | –
5 | CC(C)N(Cc1nc(-c2ccccc2)no1)C(=O)COc1ccc(Cl)cc1 [drawing 121] | 0.51 ± 0.16 µM | –
6 | Cc1ccc(OCC(=O)N(C)Cc2nc(-c3ccc(C)cc3)no2)cc1 [drawing 122] | 29.9 ± 3.9 µM | –
7 | Cc1ccc(-c2noc(CN(C(=O)COc3ccc(Cl)cc3)C(C)C)n2)cc1 [drawing 123] | 1.12 ± 0.33 µM | –
8 | Cc1ccc(-c2noc(CN(C(=O)COc3ccccc3)C(C)C)n2)cc1 [drawing 124] | 8.47 ± 0.59 µM | –
9 | CC(C)N(Cc1nc(-c2ccc(C(F)(F)F)cc2)no1)C(=O)COc1ccccc1 [drawing 126] | 15.1 ± 6.94 µM | –
10 | CC(C)N(Cc1nc(-c2ccccc2)no1)C(=O)COc1ccccc1 [drawing 127] | 6.22 ± 1.11 µM | –
11 | CCN(Cc1nc(-c2ccc(C)cc2)no1)C(=O)COc1ccc(C)cc1 [drawing 128] | 8.98 ± 5.21 µM | –
12 | Cc1ccc(CNC(=O)N(Cc2nc(-c3ccccc3)no2)C(C)C)cc1 [drawing 129] | – | inhibition at 10 µM: -8.75 ± 17.4%
13 | CC(C)N(Cc1nc(-c2ccccc2)no1)C(=O)CCc1ccc(C(F)(F)F)cc1 [drawing 130] | 44 ± 20.9 µM | –
14 | CC(C)N(Cc1nc(-c2ccccc2)no1)C(=O)COc1ccc(F)cc1 [drawing 131] | 8.73 ± 3.05 µM | –
15 | CC(C)N(Cc1nc(-c2ccccc2)no1)C(=O)COc1ccc(-c2ccccc2)cc1 [drawing 132] | – | inhibition at 10 µM: < 70%
16 | CC(C)N(Cc1nc(-c2ccccc2)no1)C(=O)COc1ccc2cc(Br)ccc2c1 [drawing 133] | – | inhibition at 10 µM: < 70%
17 | CCc1ccc(OCC(=O)N(Cc2nc(-c3ccccc3)no2)C(C)C)cc1 [drawing 134] | 0.267 ± 0.05 µM | –
18 | O=C(COc1ccc(C(F)(F)F)cc1)N(Cc1nc(-c2ccccc2)no1)C1CC1 [drawing 135] | 6.37 µM | Screening Results (% Inhibition @ 10 μM) Chymotrypsin-like: 35.35% and 33.80%; inhibition at 10 µM: 27.3%
19 | Cc1cccc(OCC(=O)N(Cc2nc(-c3ccccc3)no2)C(C)C)c1 [drawing 136] | – | inhibition at 10 µM: < 70%

Row | Compound | IC50 [1] | also measured
20 | Cc1ccc(OCC(=O)N(Cc2nc(-c3ccccn3)no2)C(C)C)cc1 [drawing 138] | 3.75 ± 1.47 µM | –
21 | Cc1ccc(OCC(=O)N(Cc2nc(-c3ccccc3)no2)C(C)C)cc1 [drawing 139] | 0.22 ± 0.084 µM | –
22 | CC(C)N(Cc1nc(-c2ccccc2)no1)C(=O)COc1ccc(C(=O)OC(C)(C)C)cc1 [drawing 141] | – | inhibition at 10 µM: -62 ± 26.3%
23 | Cc1ccc(OCC(=O)N(Cc2nc(-c3ccc(C)cc3)no2)C(C)(C)C)cc1 [drawing 142] | – | inhibition at 10 µM: -108 ± 119%
24 | CC(C)N(Cc1nc(-c2ccccc2)no1)C(=O)COc1ccc(C(=O)O)cc1 [drawing 143] | – | Screening Results (% Inhibition @ 10 μM) Chymotrypsin-like: 27.76 ± 20.83 (n = 5) %
25 | Cc1ccc(OCC(=O)N(CCc2nc(-c3ccccc3)no2)C(C)C)cc1 [drawing 144] | – | inhibition at 10 µM: 31.4 ± 11.2%
26 | CCc1ccc(OCC(=O)N(Cc2nc(-c3cccnc3)no2)C(C)C)cc1 [drawing 145] | 0.099 ± 0.032 µM | –
27 | CC(C)CC(NC(=O)c1ccc(OCC(=O)N(Cc2nc(-c3ccccc3)no2)C(C)C)cc1)C(=O)O (centres unmarked) [drawing 146] | – | Screening Results (% Inhibition @ 10 μM) Chymotrypsin-like: −174.75 ± 134.18 (n = 5) %
28 | Cc1ccc(OCC(=O)N(Cc2nc(-c3ccncc3)no2)C(C)C)cc1 [drawing 147] | 0.37 ± 0.046 µM | inhibition at 10 µM: 95.72 ± 0.88%
29 | Cc1ccc(NCC(=O)N(Cc2nc(-c3ccccc3)no2)C(C)C)cc1 [drawing 148] | 5.67 ± 0.96 µM | inhibition at 10 µM: 81.5 ± 2.77%
30 | Cc1ccc(OCC(=O)N(Cc2nc3ccccc3[nH]2)C(C)C)cc1 [drawing 151] | 12.5 ± 2.96 µM | inhibition at 10 µM: 80.4 ± 3.04%
31 | CC(C)CC(NC(=O)c1ccc(OCC(=O)N(Cc2nc(-c3ccccc3)no2)C(C)C)cc1)C(=O)O (centres unmarked) [drawing 153] | – | Screening Results (% Inhibition @ 10 μM) Chymotrypsin-like: −149.24 ± 157.49 (n = 5) %
32 | Cc1ccc(OCC(=O)N(Cc2nc(-c3ccccc3)no2)C(C)C)cn1 [drawing 154] | 4 ± 0.89 µM | inhibition at 10 µM: 70.6 ± 5.09%
33 | CC(C)N(Cc1nc(-c2cccnc2)no1)C(=O)COc1ccc(O)cc1 [drawing 155] | 0.98 ± 0.5 µM | inhibition at 10 µM: 78.4 ± 6.33%
34 | CC(C)N(Cc1nc(-c2ccccc2)no1)C(=O)COc1ccc(O)cc1 [drawing 156] | 10.1 ± 4.52 µM | inhibition at 10 µM: -5.85 ± 23.4%
35 | CCCc1ccc(OCC(=O)N(Cc2nc(-c3cccnc3)no2)C(C)C)cc1 [drawing 157] | 0.032 ± 0.00015 µM | inhibition at 10 µM: 92.3 ± 2.19%
36 | CCCCc1ccc(OCC(=O)N(Cc2nc(-c3cccnc3)no2)C(C)C)cc1 [drawing 159] | 0.039 ± 0.011 µM | –
37 | CC(C)N(Cc1nc(-c2cccnc2)no1)C(=O)c1cc2ccccc2o1 [drawing 160] | 0.379 ± 0.063 µM | –
38 | CC(C)N(Cc1nc(-c2cccnc2)no1)C(=O)COc1ccccc1 [drawing 161] | 3.12 ± 1.11 µM | –

Row | Compound | IC50 [1] | also measured
39 | Cc1ccc(O[C@@H](C)C(=O)N(Cc2nc(-c3cccnc3)no2)C(C)C)cc1 [drawing 162] | 0.214 ± 0.053 µM | –
40 | Cc1ccc(O[C@H](C)C(=O)N(Cc2nc(-c3cccnc3)no2)C(C)C)cc1 [drawing 163] | 7.52 ± 2.13 µM | –
41 | CCCCCc1ccc(OCC(=O)N(Cc2nc(-c3cccnc3)no2)C(C)C)cc1 [drawing 164] | 0.121 ± 0.04 µM | –
42 | CCCCCCc1ccc(OCC(=O)N(Cc2nc(-c3cccnc3)no2)C(C)C)cc1 [drawing 165] | 0.428 ± 0.038 µM | –
43 | CCCCc1ccc(OCC(=O)N(Cc2nc(-c3cnccn3)no2)C(C)C)cc1 [drawing 166] | 0.107 ± 0.013 µM | –
44 | CCCc1ccc(OCC(=O)N(Cc2nc(-c3cnccn3)no2)C(C)C)cc1 [drawing 167] | 0.105 ± 0.031 µM | –
45 | CCCc1ccc(OCC(=O)N(Cc2nc(-c3cncnc3)no2)C(C)C)cc1 [drawing 168] | 0.032 ± 0.003 µM | –
46 | CC(C)N(Cc1nc(-c2cccnc2)no1)C(=O)COc1ccc(C2CCCCC2)cc1 [drawing 169] | 1.36 ± 0.184 µM | –
47 | CC(C)N(Cc1nc(-c2cccnc2)no1)C(=O)COc1ccc(C(C)(C)C)cc1 [drawing 170] | 65.9 ± 33.7 µM | –
48 | CC(C)c1ccc(OCC(=O)N(Cc2nc(-c3cccnc3)no2)C(C)C)cc1 [drawing 171] | 0.436 ± 0.073 µM | –
49 | Cc1ccc(OCC(=O)N(Cc2nc(-c3ccc(C)cc3)no2)C2CC2)cc1 [drawing 172] | – | inhibition at 10 µM: -8.36 ± 19%
50 | CC(C)Cc1ccc(OCC(=O)N(Cc2nc(-c3cccnc3)no2)C(C)C)cc1 [drawing 173] | 0.14 ± 0.052 µM | –
51 | CCCc1ccc(OCC(=O)N(Cc2nc(-c3ncccn3)no2)C(C)C)cc1 [drawing 174] | 1.27 ± 0.226 µM | –
52 | CC(C)N(Cc1nc(-c2ccccc2)no1)C(=O)CCc1ccc(C(F)(F)F)cc1 [drawing 180] | – | IC50 (Table 8, 20S CT-L proteasome activity, read-out: IC50 (μM) CT-L): 15.7 µM
53 | CC(C)N(Cc1nc(-c2ccccc2)no1)C(=O)CCc1ccc(C(F)(F)F)cc1 [drawing 183] | – | IC50 [2]: 15.7 µM
54 | Cc1ccc(OCC(=O)N(C)Cc2nc(-c3ccc(C)cc3)no2)cc1 [drawing 186] | – | IC50 [2]: 29.9 µM
55 | Cc1ccc(OCC(=O)N(Cc2nc(-c3ccc(C)cc3)no2)CC(C)C)cc1 [drawing 187] | – | IC50 [2]: 2.37 ± 0.4 µM
56 | N-Isopropyl-N-((2-phenyloxazol-4-yl)methyl)-2-(p-tolyloxy)acetamide [SO3-023] | – | IC50 (Table 4, read-out: IC50 (μM) Chymotrypsin-like activity): 0.45 ± 0.18 µM
